Data published in patent US5767236A, “Linear therapeutic peptides” (Biomeasure, Inc., priority 1995, dated 1998).

Experiments:
CX-5 colon tumor = experiment: Subcutaneous tumor assay, CX-5 colon tumor; type: in vivo, human; conditions: 100 μg/injection, s.c., b.i.d.
Experimental: (§1) Treatment of tumors induced by subcutaneous implantation of in vitro maintained cell cultures was initiated only when well established as progressively growing tumors in the first transplant generation from in vitro culture. "No takes" were culled and animals with tumors of similar size were carefully randomized into control and test groups.
(§2) Analogues were tested against all tumor systems except SCLC's and NSCLC's at a screening dose of 100 μg/injection, s.c., in the flank opposite from the tumor, b.i.d. Lung tumors (SCLC and NSCLC) were tested at 250 μg/injection, s.c., b.i.d. Rat breast tumors were tested at 400 Ag/injection, s.c., b.i.d., an equivalent extrapolation from the mouse dose.
(§3) In vivo transplantation established tumor systems were implanted s.c. as a 1-2 mm^3 mince of tumor tissue. Treatment was initiated within 2 to 3 days of implantation.
(§4) Tumor weights (mgs) from tumor dimensions (mm×mm) were calculated following the formula of a prolate ellipsoid: […]
(§5) L×W^2 /2, where L is the longer of the two measurements.
(§6) Tumor measurements were determined with a vernier caliper three times/week.
GOB-G Moderately differentiated adenocarcinoma, human, tested
as xenografts in athymic nude females.

CX-1 colon tumor = experiment: Subcutaneous tumor assay, CX-1 colon tumor; type: in vivo, human; conditions: 100 μg/injection, s.c., b.i.d.
Experimental: as §1, §2, §3, §4, §5, §6
CZ-1 Mucinous adenocarcinoma, human, tested as xenografts in […]

[1] = test system: 13762NF rat mammary tumor; experiment: Subcutaneous tumor assay, 13762NF breast tumor; type: in vivo; conditions: 13762NF in Fischer 344 strain rats; rat breast tumors tested at 400 Ag/injection, s.c., b.i.d.
Experimental: as §1, §2, §3, §4, §5, §6
13762NF Estrogen insensitive rat mammary tumor transplantable in
Fischer 344 strain rats.

[2] = test system: 2PR121D(1)/R adenocarcinoma of the rat prostate; experiment: Subcutaneous tumor assay, 2PR121D(1)/R prostate tumor; type: in vivo; conditions: s.c. tumors in Nb strain rats, 100 μg/injection, b.i.d.
Experimental: as §1, §2, §3, §4, §5, §6
Androgen resistant, poorly
differentiated adenocarcinoma
of the rate prostate derived as an androgen resistant
subline of 2PR121D(1)/S. Tested as subcutaneous tumors

M5123 hepatoma = experiment: Subcutaneous tumor assay, M5123 hepatoma; type: in vivo, rat; conditions: 100 μg/injection, s.c., b.i.d.
Experimental: as §1, §2, §3, §4, §5, §6

[3] = test system: A-549 human non-small cell lung cancer (NSCLC); experiment: Subcutaneous tumor assay, A-549 lung tumor; type: in vivo
Experimental: as §1, §2, §3, §4, §5, §6
A-549 An in vitro maintained human non-small cell lung cancer
(NSCLC) obtained from the American Type Culture
Collection repository. Implanted s.c. as a cell
suspension and resultant tumors treated when tumors were […]

[4] = test system: AT-3 carcinoma of the rat prostate; experiment: Subcutaneous tumor assay, AT-3 prostate tumor; type: in vivo; conditions: AT-3, s.c. xenografts in athymic nudes, 100 μg/injection, b.i.d.
Experimental: as §1, §2, §3, §4, §5, §6
AT-3 Androgen resistant, undifferentiated fast growing
carcinoma of the rat prostate. A subline of R-3327-H.
Tested as subcutaneous xenografts in athymic nudes.

[5] = test system: different human and animal tumors; experiment: Assay on inhibition of tumor growth, overall statement; type: in vivo; conditions: summary of Table 3; inhibitory activity when Percent Test/Control < 80% T/C
Experimental: as §1, §2, §3, §4, §5, §6

[6] = test system: NCI-H345 human small cell lung cancer (SCLC); experiment: Subcutaneous tumor assay, NCI-H345 lung tumor; type: in vivo; conditions: NCI-H345 SCLC, s.c. xenografts in athymic nudes; 250 μg/injection, s.c., b.i.d.
Experimental: as §1, §2, §3, §4, §5, §6
An in vitro maintained human small cell lung cancer
(SCLC) graciously prided by Dr. A. Gazdar. Cell
agglomerates produce slow, progressively growing tumors
in approximately 80% of athymic nude mice
when implanted subcutaneously. Tested as
well established subcutaneous
xenografts in athymic nudes.

M7777 hepatoma = experiment: Subcutaneous tumor assay, M7777 hepatoma; type: in vivo, rat; conditions: 100 μg/injection, s.c., b.i.d.
Experimental: as §1, §2, §3, §4, §5, §6

M7806 hepatoma = experiment: Subcutaneous tumor assay, M7806 hepatoma; type: in vivo, rat; conditions: 100 μg/injection, s.c., b.i.d.
Experimental: as §1, §2, §3, §4, §5, §6

[7] = test system: 11095 squamous cell carcinoma of the rat prostate; experiment: Subcutaneous tumor assay, 11095 prostate tumor; type: in vivo; conditions: 11095, s.c. xenografts in athymic nudes, 100 μg/injection, b.i.d.
Experimental: as §1, §2, §3, §4, §5, §6
11095 Androgen insensitive, squamous cell carcinoma of the rat
prostate. Originating and transplantable in Fischer 344
strain rats. Tested as subcutaneous xenografts in […]

MT/W9Q-S breast tumor = experiment: Subcutaneous tumor assay, MT/W9Q-S breast tumor; type: in vivo; conditions: rat breast tumors tested at 400 Ag/injection, s.c., b.i.d.
Experimental: as §1, §2, §3, §4, §5, §6

[8] = test system: MX-1 human mammary carcinoma; experiment: Subcutaneous tumor assay, MX-1 breast tumor; type: in vivo; conditions: MX-1, s.c. xenografts in athymic nude females, 100 μg/injection, b.i.d.
Experimental: as §1, §2, §3, §4, §5, §6
MX-1 Estrogen independent, human poorly
carcinoma. Tested as subcutaneous xenografts in athymic

GRP receptor = target: T1, GRP receptor (Rattus norvegicus, UniProt P52500); experiment: Assay on binding to GRP receptor ([125I-Tyr4]bombesin displacement, AR42J cell membranes); conditions: rat AR42J cell membranes, [125I-Tyr4]bombesin, 30 min, 4° C.; read-out: IC50, affinity binding for the GRP receptors
T1 construct: endogenous in cells; host or cells: rat AR42J pancreatic acinar cells (membrane preparation)
T1 sequence (P52500 whole entry): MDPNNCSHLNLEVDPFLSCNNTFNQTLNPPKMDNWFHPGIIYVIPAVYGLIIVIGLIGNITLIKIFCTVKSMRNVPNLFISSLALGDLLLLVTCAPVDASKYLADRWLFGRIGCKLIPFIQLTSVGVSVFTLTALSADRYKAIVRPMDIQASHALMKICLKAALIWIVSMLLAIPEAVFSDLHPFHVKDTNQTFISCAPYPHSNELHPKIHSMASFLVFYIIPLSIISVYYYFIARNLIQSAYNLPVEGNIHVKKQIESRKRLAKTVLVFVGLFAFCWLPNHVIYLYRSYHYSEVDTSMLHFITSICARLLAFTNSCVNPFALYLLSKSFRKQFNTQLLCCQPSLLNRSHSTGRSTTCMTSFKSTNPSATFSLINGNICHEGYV
Experimental: Rat AR42J pancreatic acinar cells were cultured in Dulbecco's modified Eagle's medium without antibiotics and supplemented with 10% (vol/vol) fetal calf serum. The incubation atmosphere consisted of 10% C)2 -90% humidified air at 37° C.
Membranes for the bombesin receptor binding assay were obtained by homogenizing AR42J cells (Polytron, setting 6, 15 sec) in ice-cold 50 mM Tris-HCl (Buffer A) and centrifuging twice at 39,000× g (10 min), with an intermediate resuspension in fresh buffer. The final pellets were resuspended in 50 mM Tris-HCl, containing 0.1 mg/ml bacitracin, and 0.1% BSA (Buffer B), and held on ice for the receptor binding assay.
For assay, aliquots (0.4 ml) were incubated with 0.05 ml [^125 I-Tyr^4 ] bombesin (~2200 Ci/mmol, New England Nuclear) and Buffer B, with and without 0.05 ml of unlabeled competing analogs. After a 30 min incubation (4° C.), the bound [^125 I-Tyr^4 ] bombesin was separated from the free by rapid filtration through GF/B filters which had been previously soaked in 0.1% polyethyleneimine. The filters were then washed three times with 5 ml aliquots of ice-cold Buffer A. Specific binding was defined as the total [^125 I-Tyr^4 ] bombesin bound minus that bound in the presence of 1 μM unlabeled bombesin.

CC(C)C[C@H](NC(=O)[C@H](CC(C)C)NC(=O)[C@H](Cc1c[nH]cn1)NC(=O)CNC(=O)[C@@H](NC(=O)[C@H](C)NC(=O)[C@H](Cc1c[nH]c2ccccc12)NC(=O)[C@H](CCC(N)=O)NC(=O)[C@H](N)Cc1ccccc1)C(C)C)C(N)=O [BIM-26187, H-D-Phe-Gln-Trp-Ala-Val-Gly-His-Leu-Leu-NH2]
Percent Test/Control (tumor weight) (CX-5 colon tumor): 83% | Percent Test/Control (tumor weight) (CX-1 colon tumor): 31% | Percent Test/Control (tumor weight) [1]: 70% | Percent Test/Control (tumor weight) [2]: 70% | Percent Test/Control (tumor weight) (M5123 hepatoma): 62% | Percent Test/Control (tumor weight) ([3]; A-549 NSCLC, implanted s.c., 250 μg/injection, s.c., b.i.d.): 63% | growth inhibitory effect on non-small cell lung carcinoma (NSCLC) ([3]; FIG. 2): capable of inhibiting | Percent Test/Control (tumor weight) [4]: 36% | inhibition of the growth of different human and animal tumors [5]: capable of inhibiting the growth | Percent Test/Control (tumor weight) [6]: 66% | Percent Test/Control (tumor weight) (M7777 hepatoma): 67% | Percent Test/Control (tumor weight) (M7806 hepatoma): 83% | Percent Test/Control (tumor weight) [7]: 50% | Percent Test/Control (tumor weight) (MT/W9Q-S breast tumor): 45% | Percent Test/Control (tumor weight) [8]: 78% | IC50 (GRP receptor): 5 nM
